In the supplement of paper PMC11451515:

System: SEM cells
Assay: cell viability relative to DMSO control; higher = less cytotoxic
Conditions: 48 h
How it was run: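 Viability is expressed as a percentage of DMSO wells within each plate, and cell-free wells serve as background. Seeding densities in the 1536-well plates (5 μl) were 500 cells/well for NOMO1 or SEM leukemia cells and 1000 cells/well for P12-Ichikawa. Each line was adapted for at least four passages in each medium. Library compounds in DMSO were pin-dosed at 47 μM to 0.79 nM (11 points, threefold), and CellTiter-Glo One luminescence was read after 48 h at 37°C.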

[1] = HPLM + 10% dialyzed FBS, 0.000781 µM
[2] = HPLM + 10% dialyzed FBS, 0.00234 µM
[3] = HPLM + 10% dialyzed FBS, 0.00702 µM
[4] = HPLM + 10% dialyzed FBS, 0.0211 µM
[5] = HPLM + 10% dialyzed FBS, 0.0632 µM
[6] = HPLM + 10% dialyzed FBS, 0.19 µM
[7] = HPLM + 10% dialyzed FBS, 0.569 µM
[8] = HPLM + 10% dialyzed FBS, 1.71 µM
[9] = HPLM + 10% dialyzed FBS, 5.12 µM
[10] = HPLM + 10% dialyzed FBS, 15.4 µM
[11] = HPLM + 10% dialyzed FBS, 46.1 µM
[12] = RPMI 5 mM glucose + 10% FBS, 0.000781 µM
[13] = RPMI 5 mM glucose + 10% FBS, 0.00234 µM
[14] = RPMI 5 mM glucose + 10% FBS, 0.00702 µM
[15] = RPMI 5 mM glucose + 10% FBS, 0.0211 µM
[16] = RPMI 5 mM glucose + 10% FBS, 0.0632 µM
[17] = RPMI 5 mM glucose + 10% FBS, 0.19 µM
[18] = RPMI 5 mM glucose + 10% FBS, 0.569 µM
[19] = RPMI 5 mM glucose + 10% FBS, 1.71 µM
[20] = RPMI 5 mM glucose + 10% FBS, 5.12 µM
[21] = RPMI 5 mM glucose + 10% FBS, 15.4 µM
[22] = RPMI 5 mM glucose + 10% FBS, 46.1 µM
[23] = RPMI 5 mM glucose + 10% dialyzed FBS, 0.000781 µM
[24] = RPMI 5 mM glucose + 10% dialyzed FBS, 0.00234 µM
[25] = RPMI 5 mM glucose + 10% dialyzed FBS, 0.00702 µM
[26] = RPMI 5 mM glucose + 10% dialyzed FBS, 0.0211 µM
[27] = RPMI 5 mM glucose + 10% dialyzed FBS, 0.0632 µM
[28] = RPMI 5 mM glucose + 10% dialyzed FBS, 0.19 µM
[29] = RPMI 5 mM glucose + 10% dialyzed FBS, 0.569 µM
[30] = RPMI 5 mM glucose + 10% dialyzed FBS, 1.71 µM
[31] = RPMI 5 mM glucose + 10% dialyzed FBS, 5.12 µM
[32] = RPMI 5 mM glucose + 10% dialyzed FBS, 15.4 µM
[33] = RPMI 5 mM glucose + 10% dialyzed FBS, 46.1 µM

Row | SMILES | cell viability [1] [%] | cell viability [2] [%] | cell viability [3] [%] | cell viability [4] [%] | cell viability [5] [%] | cell viability [6] [%] | cell viability [7] [%] | cell viability [8] [%] | cell viability [9] [%] | cell viability [10] [%] | cell viability [11] [%] | cell viability [12] [%] | cell viability [13] [%] | cell viability [14] [%] | cell viability [15] [%] | cell viability [16] [%] | cell viability [17] [%] | cell viability [18] [%] | cell viability [19] [%] | cell viability [20] [%] | cell viability [21] [%] | cell viability [22] [%] | cell viability [23] [%] | cell viability [24] [%] | cell viability [25] [%] | cell viability [26] [%] | cell viability [27] [%] | cell viability [28] [%] | cell viability [29] [%] | cell viability [30] [%] | cell viability [31] [%] | cell viability [32] [%] | cell viability [33] [%]
1 | COc1cccc2c1[C@]13CCN(CC4CC4)[C@H](C2)[C@]1(OC)CCC(=O)C3 | 71.3 | 90.6 | 20 | 108 | 106 | 105 | 107 | 109 | 116 | 120 | 111 | 89.4 | 123 | 8.7 | 113 | 116 | 107 | 97 | 113 | 122 | 98.4 | 110 | 81.2 | 108 | 18.8 | 99.8 | 105 | 106 | 84.6 | 97.4 | 93.3 | 95.6 | 80.7
2 | C[S+](=O)([O-])c1ccc(Oc2cc(F)cc(C#N)c2)c2c1[C@H](O)C(F)(F)C2 | 73.5 | 97.9 | 101 | 101 | 108 | 105 | 103 | 106 | 111 | 106 | 87.7 | 93.8 | 117 | 152 | 140 | 138 | 155 | 144 | 156 | 141 | 158 | 124 | 76.9 | 112 | 121 | 105 | 124 | 121 | 106 | 128 | 106 | 120 | 84.9
3 | CCOC1=CC=CC=C1N\2C(=O)C3=C(C=CC=C3)\N=C2C(C)N4CCN(CC4)C(=O)COC5=CC=C(Cl)C=C5 (stereo unspecified) | 112 | 111 | 111 | 123 | 114 | 115 | 104 | 26.1 | 9.76 | 5.2 | 3.06 | 124 | 115 | 108 | 101 | 110 | 114 | 28 | 6.16 | 4.12 | 3.03 | 1.64 | 113 | 131 | 119 | 116 | 125 | 136 | 68.6 | 9.93 | 6.21 | 4.51 | 2.93
4 | Nc1ncnc2c1nc(Cl)n2[C@@H]1O[C@H](CO)[C@@H](O)[C@H]1O | 118 | 128 | 123 | 125 | 119 | 128 | 115 | 128 | 97.3 | 41.6 | 7.3 | 120 | 130 | 123 | 135 | 136 | 135 | 119 | 130 | 109 | 55 | 8.37 |  |  |  |  |  |  |  |  |  |  | 
5 | Nc1ncnc2c1c(-c1cccc(OCc3ccccc3)c1)cn2C1CC(CN2CCCC2)C1 (stereo unspecified) | 97.6 | 112 | 120 | 108 | 113 | 111 | 89.8 | 83.1 | 63.8 | 45.4 | 29.6 | 89.4 | 113 | 125 | 115 | 128 | 121 | 103 | 95.3 | 87.8 | 54.8 | 31.5 |  |  |  |  |  |  |  |  |  |  | 
6 | CCOC(=O)\C1=C\[C@@H](OC(CC)CC)[C@H](NC(C)=O)[C@@H](N)C1 | 73.2 | 82.3 | 95.9 | 97.5 | 77.9 | 102 | 91.4 | 70.8 | 101 | 96.8 | 56 | 77.6 | 85.1 | 93.3 | 99.1 | 85 | 92.7 | 96.8 | 78.8 | 88.8 | 111 | 89.3 | 75.6 | 82.7 | 92.3 | 84.9 | 75.5 | 98.2 | 102 | 73.7 | 97.7 | 104 | 68.3
7 | OC(CN1CCN(c2cccc(Cl)c2)CC1)C(c1ccccc1)c1ccccc1 (stereo unspecified) | 99.1 | 97.9 | 102 | 101 | 104 | 110 | 92.1 | 10.6 | 8.66 | 7.09 | 7.14 | 101 | 95.2 | 106 | 107 | 111 | 32.4 | 24 | 6.74 | 8 | 8.3 | 7.07 | 111 | 95.2 | 104 | 103 | 105 | 38.2 | 42.9 | 7.36 | 8.19 | 8.02 | 7.53
8 | CC1(C)C(N(O)C(=O)Nc2ccc(Cl)cc2)N(c2ccc(Cl)cc2)C(=O)N1CC(=O)N/N=C/C=C/c1ccc([N+](=O)[O-])o1 (stereo unspecified) | 128 | 117 | 120 | 119 | 122 | 81.4 | 110 | 117 | 52.7 | 107 | 3.81 |  |  |  |  |  |  |  |  |  |  |  | 114 | 115 | 111 | 113 | 121 | 91.6 | 104 | 99.1 | 30.9 | 80.8 | 2.64
